Biological target: T1, human NEP (Homo sapiens, UniProt P08473)
T1 construct: purchased R&D Systems, Minneapolis, Minn; 1182-ZN
Assay: In vitro enzyme inhibition assay at human NEP (Assay 1)
Format: biochemical
Conditions: recombinant human NEP, fluorogenic peptide substrate 10 μM, 37° C.; values may be affected by hydrolysis in the assay conditions, approximations; read-out: pKi at human NEP (converted)
Description: The inhibitory activities of compounds at human and rat neprilysin (EC 3.4.24.11; NEP) and human angiotensin converting enzyme (ACE) were determined using in vitro assays as described below.
Recombinant human NEP and recombinant human ACE were obtained commercially (R&D Systems, Minneapolis, Minn., catalog numbers 1182-ZN and 929-ZN, respectively). The fluorogenic peptide substrate Mca-D-Arg-Arg-Leu-Dap-(Dnp)-OH (Medeiros et al. (1997) Braz. J. Med. Biol. Res. 30:1157-62; Anaspec, San Jose, Calif.) and Abz-Phe-Arg-Lys(Dnp)-Pro-OH (Araujo et al. (2000) Biochemistry 39:8519-8525; Bachem, Torrance, Calif.) were used in the NEP and ACE assays respectively.
The assays were performed in 384-well white opaque plates at 37° C. using the fluorogenic peptide substrates at a concentration of 10 μM in Assay Buffer (NEP: 50 mM HEPES, pH 7.5, 100 mM NaCl, 0.01% polyethylene glycol sorbitan monolaurate (Tween-20), 10 μM ZnSO4; ACE: 50 mM HEPES, pH 7.5, 100 mM NaCl, 0.01% Tween-20, 1 μM ZnSO4).
Test compounds were assayed over the range of concentrations from […] to 20 μM. Test compounds were added to the enzymes and incubated for 30 minute at 37° C. prior to initiating the reaction by the addition of substrate. Reactions were terminated after 20 minutes of incubation at 37° C. by the addition of glacial acetic acid to a final concentration of 3.6% (v/v).
Plates were read on a fluorometer with excitation and emission wavelengths set to 320 nm and 405 nm, respectively Inhibition constants were obtained by nonlinear regression of the data using the equation (GraphPad Software, Inc., San Diego, Calif.): v=v0/[1+(I/K′)] where v is the reaction rate, v0 is the uninhibited reaction rate, I is the inhibitor concentration and K′ is the apparent inhibition constant.
Compounds of the invention were tested in this assay and found to have pKi values at human NEP as follows, noting however, that these values may be affected by hydrolysis in the assay conditions and are therefore approximations of activity.

T1 sequence (P08473 52-750 limits assumed): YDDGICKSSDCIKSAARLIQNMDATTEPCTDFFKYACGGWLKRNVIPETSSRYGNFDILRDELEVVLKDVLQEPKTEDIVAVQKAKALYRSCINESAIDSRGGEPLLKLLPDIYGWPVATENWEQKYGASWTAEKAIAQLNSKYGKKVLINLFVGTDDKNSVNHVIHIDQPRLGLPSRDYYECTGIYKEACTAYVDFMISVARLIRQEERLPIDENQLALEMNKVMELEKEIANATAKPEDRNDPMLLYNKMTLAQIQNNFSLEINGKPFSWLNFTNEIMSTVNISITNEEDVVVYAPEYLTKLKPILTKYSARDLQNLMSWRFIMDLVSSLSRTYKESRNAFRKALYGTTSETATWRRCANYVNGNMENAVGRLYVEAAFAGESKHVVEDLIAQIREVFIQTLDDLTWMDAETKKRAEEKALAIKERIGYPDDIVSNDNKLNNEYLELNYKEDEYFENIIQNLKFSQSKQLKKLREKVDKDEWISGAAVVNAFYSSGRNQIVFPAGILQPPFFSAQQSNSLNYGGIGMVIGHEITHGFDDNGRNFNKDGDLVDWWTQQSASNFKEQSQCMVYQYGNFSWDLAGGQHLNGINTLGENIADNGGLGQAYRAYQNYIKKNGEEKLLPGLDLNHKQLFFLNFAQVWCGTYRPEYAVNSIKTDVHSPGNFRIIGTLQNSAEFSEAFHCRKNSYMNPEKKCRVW

Row | Ki | Compound
1 | 316 to 1000 nM | O=C(O)C(=O)N[C@H](Cc1ccc(-c2ccccc2)cc1)C[C@@H](O)C(=O)OCCCCOc1no[n+]([O-])c1S(=O)(=O)c1ccccc1 [Example 4, (2R,4R)-5-Biphenyl-4-yl-2-hydroxy-4-(oxalylamino)-pentanoic Acid 4-(4-Benzenesulfonyl-5-oxyfurazan-3-yloxy)butyl Ester]
2 | 316 to 1000 nM | O=C(O)C(=O)N[C@H](Cc1ccc(-c2ccccc2)cc1)C[C@@H](O)C(=O)OCCCCO[N+](=O)[O-] [Example 3, (2R,4R)-5-Biphenyl-4-yl-2-hydroxy-4-(oxalylamino)-pentanoic Acid 4-Nitrooxybutyl Ester]
3 | 31.6 to 100 nM | O=C(N[C@H](Cc1ccc(-c2ccccc2)cc1)C[C@@H](O)C(=O)OCCCCOc1no[n+]([O-])c1S(=O)(=O)c1ccccc1)c1cc(O)no1 [Example 2, (2R,4R)-5-Biphenyl-4-yl-2-hydroxy-4-[(3-hydroxyisoxazole-5-carbonyl)amino]pentanoic Acid 4-(4-Benzenesulfonyl-5-oxyfurazan-3-yloxy)butyl Ester]

Row | Compound | Ki
4 | O=C(N[C@H](Cc1ccc(-c2ccccc2)cc1)C[C@@H](O)C(=O)OCCCCO[N+](=O)[O-])c1cc(O)no1 [Example 1, (2R,4R)-5-Biphenyl-4-yl-2-hydroxy-4-[(3-hydroxyisoxazole-5-carbonyl)amino]pentanoic Acid 4-Nitrooxybutyl Ester] | 31.6 to 100 nM
